Measured values: ChEMBL document CHEMBL1649366, “Self-organizing molecular field analysis on human β-secretase nonpeptide inhibitors: 5, 5-disubstituted aminohydantoins” (Eur J Med Chem, 2011)

Target: Beta-secretase 1 (Homo sapiens, UniProt P56817)
Assay: Inhibition of human BACE1

Sequence of Beta-secretase 1 (P56817 whole entry): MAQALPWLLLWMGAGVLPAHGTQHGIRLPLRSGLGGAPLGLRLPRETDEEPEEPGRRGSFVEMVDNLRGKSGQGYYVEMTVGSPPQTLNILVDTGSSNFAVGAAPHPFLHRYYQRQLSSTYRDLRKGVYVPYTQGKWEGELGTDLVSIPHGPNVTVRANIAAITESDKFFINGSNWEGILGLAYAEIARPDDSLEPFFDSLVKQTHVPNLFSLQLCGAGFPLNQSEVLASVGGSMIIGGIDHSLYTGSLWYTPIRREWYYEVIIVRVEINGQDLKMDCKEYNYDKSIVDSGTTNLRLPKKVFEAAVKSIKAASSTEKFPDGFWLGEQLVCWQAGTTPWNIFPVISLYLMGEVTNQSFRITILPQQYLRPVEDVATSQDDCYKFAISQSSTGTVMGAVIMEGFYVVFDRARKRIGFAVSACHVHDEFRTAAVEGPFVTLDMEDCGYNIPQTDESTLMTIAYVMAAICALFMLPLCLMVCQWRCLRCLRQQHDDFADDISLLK

Row | IC50 | SMILES
1 | 20 µM | NC1=NC(c2ccccc2)(c2ccccc2)C(=O)N1
2 | 8 µM | CCN1C(=O)C(c2ccccc2)(c2ccccc2)N=C1N
3 | 0.03 µM | CCc1cc(C2(c3cccc(-c4cncnc4)c3)N=C(N)N(C)C2=O)cc(CC)n1 (centres undefined)
4 | 4.8 µM | NC1=NC(c2ccccc2)(C2CCCCC2)C(=O)N1CCCO (centres undefined)
